Laboratory results as given in patent US10526336B2, “Fused heteroaryl derivatives as orexin receptor antagonists” (Merck Sharp & Dohme Corp., priority 2014, dated 2020).

Target: human orexin-2 receptor (Homo sapiens (Human), UniProt O43614)
Assay: FLIPR Ca2+ Flux Assay, orexin-2 receptor antagonism in CHO cells
Format: cell-based
Conditions: CHO cells expressing the human orexin-2 receptor; agonist 70 pM Ala-6,12 orexin-A; read-out: hOX2 FLIPR IC50
Outline: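 CHO cells expressing rat OX1R or human OX2R, Fluo-4AM loaded, given compounds for 5 min, then challenged with 70 pM Ala-6,12 human orexin-A in HBSS/HEPES/BSA/probenecid, pH 7.4. FLIPR calcium fluorescence recorded 5 min; peak height versus agonist-alone gives IC50.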

human orexin-2 receptor, sequence (O43614 whole entry): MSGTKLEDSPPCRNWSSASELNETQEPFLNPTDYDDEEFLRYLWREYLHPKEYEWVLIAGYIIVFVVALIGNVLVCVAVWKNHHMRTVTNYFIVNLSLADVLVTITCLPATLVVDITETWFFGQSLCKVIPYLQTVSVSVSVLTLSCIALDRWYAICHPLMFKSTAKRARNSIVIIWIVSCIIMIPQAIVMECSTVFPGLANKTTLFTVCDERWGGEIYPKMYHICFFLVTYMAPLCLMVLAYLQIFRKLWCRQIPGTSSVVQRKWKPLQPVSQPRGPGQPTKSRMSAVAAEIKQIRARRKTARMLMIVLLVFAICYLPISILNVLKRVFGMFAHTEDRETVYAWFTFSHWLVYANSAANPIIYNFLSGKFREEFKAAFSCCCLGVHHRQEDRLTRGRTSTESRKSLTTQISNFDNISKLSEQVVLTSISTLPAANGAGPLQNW

SMILES	IC50 [nM]
C[C@@H]1CC[C@@H](Oc2nccn3nccc23)CN1C(=O)c1ccsc1-c1ncccn1 [Example 75, ((2R,5R)-2-methyl-5-(pyrazolo[1,5-α]pyrazin-4-yloxy)piperidin-1-yl) (2-(pyrimidin-2-yl)thiophen-3-yl) methanone]	20.6
C[C@@H]1CC[C@@H](Oc2nccn3nccc23)CN1C(=O)c1ccccc1-n1ncnn1 [Example 76, (2-(2H-tetrazol-2-yl)phenyl)((2R,5R)-2-methyl-5-(pyrazolo[1,5-α]pyrazin-4-yloxy)piperidin-1-yl)methanone]	27.8
C[C@@H]1CC[C@@H](Oc2nccn3ccnc23)CN1C(=O)c1ccccc1CS(C)(=O)=O [Example 77, ((2R,5R)-5-(imidazo[1,2-α]pyrazin-8-yloxy)-2-methylpiperidin-1-yl)(2-((methylsulfonyl)methyl)phenyl) methanone]	27.9
C[C@@H]1CC[C@@H](Oc2nccn3nccc23)CN1C(=O)c1nccnc1-c1ccccn1 [Example 78, ((2R,5R)-2-methyl-5-(pyrazolo[1,5-α]pyrazin-4-yloxy)piperidin-1-yl)(3-(pyridin-2-yl)pyrazin-2-yl)methanone]	59.1
COC(=O)c1ccccc1C(=O)N1C[C@H](Oc2nccn3nccc23)CC[C@H]1C [Example 79, methyl 2-((2R,5R)-2-methyl-5-(pyrazolo[1,5-α]pyrazin-4-yloxy)piperidine-1-carbonyl)benzoate]	44.2
C[C@@H]1CC[C@@H](Oc2nccn3nccc23)CN1C(=O)c1nccnc1-n1cccn1 [Example 80, (3-(1H-pyrazol-1-yl)pyrazin-2-yl)((2R,5R)-2-methyl-5-(pyrazolo[1,5-α]pyrazin-4-yloxy)piperidin-1-yl)methanone]	31.7
CCOc1ccccc1C(=O)N1C[C@H](Oc2nccn3nccc23)CC[C@H]1C [Example 81, (2-ethoxyphenyl)((2R,5R)-2-methyl-5-(pyrazolo[1,5-α]pyrazin-4-yloxy)piperidin-1-yl)methanone]	51.9
CCCc1ccccc1C(=O)N1C[C@H](Oc2nccn3nccc23)CC[C@H]1C [Example 82, ((2R,5R)-2-methyl-5-(pyrazolo [1,5-α]pyrazin-4-yloxy)piperidin-1-yl) (2-propylphenyl)methanone]	33.9
CC(C)Oc1ncccc1C(=O)N1C[C@H](Oc2nccn3nccc23)CC[C@H]1C [Example 83, (2-isopropoxypyridin-3-yl)((2R,5R)-2-methyl-5-(pyrazolo[1,5-α]pyrazin-4-yloxy)piperidin-1-yl)methanone]	49.1
CC(C)Oc1ccccc1C(=O)N1C[C@H](Oc2nccn3nccc23)CC[C@H]1C [Example 84, (2-isopropoxyphenyl)((2R,5R)-2-methyl-5-(pyrazolo[1,5-α]pyrazin-4-yloxy)piperidin-1-yl)methanone]	43.5
C[C@@H]1CC[C@@H](Oc2nccn3nccc23)CN1C(=O)c1ccccc1-c1ncccn1 [Example 85, ((2R,5R)-2-methyl-5-(pyrazolo[1,5-a]pyrazin-4-yloxy)piperidin-1-yl)(2-(pyrimidin-2-yl)phenyl)methanone]	15.5
C[C@@H]1CC[C@@H](Nc2nccn3nccc23)CN1C(=O)c1ccccc1-n1nccn1 [Example 86, (2-(2H-1,2,3-triazol-2-yl)phenyl)((2R,5R)-2-methyl-5-(pyrazolo[1,5-a]pyrazin-4-ylamino)piperidin-1-yl)methanone]	20.5
C[C@@H]1CC[C@@H](Oc2nccn3ncc(Br)c23)CN1C(=O)c1ccccc1-n1nccn1 [Example 88, (2-(2H-1,2,3-triazol-2-yl)phenyl)((2R,5R)-5-((3-bromopyrazolo[1,5-a]pyrazin-4-yl)oxy)-2-methylpiperidin-1-yl)methanone]	7.3
Cc1cnn2ccnc(O[C@@H]3CC[C@@H](C)N(C(=O)c4ccccc4-n4nccn4)C3)c12 [Example 89, (2-(2H-1,2,3-triazol-2-yl)phenyl)((2R,5R)-2-methyl-5-((3-methylpyrazolo[1,5-a]pyrazin-4-yl)oxy)piperidin-1-yl)methanone]	19.2
C[C@@H]1CC[C@@H](Oc2cccn3nccc23)CN1C(=O)c1ccccc1-n1nccn1 [Example 90, (2-(2H-1,2,3-triazol-2-yl)phenyl)((2R,5R)-2-methyl-5-(pyrazolo[1,5-a]pyridin-4-yloxy)piperidin-1-yl)methanone]	125
C[C@@H]1CC[C@@H](Oc2ccnc3ocnc23)CN1C(=O)c1ccccc1-n1nccn1 [Example 91, (2-(2H-1,2,3-triazol-2-yl)phenyl)((2R,5R)-2-methyl-5-(oxazolo[5,4-b]pyridin-7-yloxy)piperidin-1-yl)methanone]	16.3
C[C@@H]1CC[C@@H](Oc2ccnc3ocnc23)CN1C(=O)c1ccccc1-n1ncnn1 [Example 92, (2-(2H-tetrazol-2-yl)phenyl)((2R,5R)-2-methyl-5-(oxazolo [5,4-b]pyridin-7-yloxy)piperidin-1-yl)methanone]	36.7
COC(=O)c1ccccc1C(=O)N1C[C@H](Oc2ccnc3ocnc23)CC[C@H]1C [Example 93, methyl 2-((2R,5R)-2-methyl-5-(oxazolo[5,4-b]pyridin-7-yloxy)piperidine-1-carbonyl)benzoate]	46.4
CCOc1ccccc1C(=O)N1C[C@H](Oc2ccnc3ocnc23)CC[C@H]1C [Example 94, (2-ethoxyphenyl)((2R,5R)-2-methyl-5-(oxazolo[5,4-b]pyridin-7-yloxy)piperidin-1-yl)methanone]	24.4
C[C@@H]1CC[C@@H](Oc2nccc3c2cnn3C)CN1C(=O)c1ccccc1-n1nccn1 [Example 95, (2-(2H-1,2,3-triazol-2-yl)phenyl)((2R,5R)-2-methyl-5-((1-methyl-1H-pyrazolo[4,3-c]pyridin-4-yl)oxy)piperidin-1-yl)methanone]	17.8
C[C@@H]1CC[C@@H](Nc2nccc3c2cnn3C)CN1C(=O)c1ccccc1-n1nccn1 [Example 96, (2-(2H-1,2,3-triazol-2-yl)phenyl)((2R,5R)-2-methyl-5-((1-methyl-1H-pyrazolo[4,3-c]pyridin-4-yl)amino)piperidin-1-yl)methanone]	60
C[C@@H]1CC[C@@H](Nc2nccc3nn(C)cc23)CN1C(=O)c1ccccc1-n1nccn1 [Example 97, (2-(2H-1,2,3-triazol-2-yl)phenyl)((2R,5R)-2-methyl-5-((2-methyl-2H-pyrazolo[4,3-c]pyridin-4-yl)amino)piperidin-1-yl) methanone]	124
C[C@@H]1CC[C@@H](Oc2nccc3c2ncn3C)CN1C(=O)c1ccccc1-n1nccn1 [Example 98, (2-(2H-1,2,3-triazol-2-yl)phenyl)((2R,5R)-2-methyl-5-((1-methyl-1H-imidazo[4,5-c]pyridin-4-yl)oxy)piperidin-1-yl)methanone]	28.8
C[C@@H]1CC[C@@H](Oc2nccc3ncn(C)c23)CN1C(=O)c1ccccc1-n1nccn1 [Example 99, (2-(2H-1,2,3-triazol-2-yl)phenyl)((2R,5R)-2-methyl-5-((3-methyl-3H-imidazo[4,5-c]pyridin-4-yl)oxy)piperidin-1-yl)methanone]	42.3
C[C@@H]1CC[C@@H](Nc2nccc3ncn(C)c23)CN1C(=O)c1ccccc1-n1nccn1 [Example 100, (2-(2H-1,2,3-triazol-2-yl)phenyl)((2R,5R)-2-methyl-5-((3-methyl-3H-imidazo[4,5-c]pyridin-4-yl)amino)piperidin-1-yl)methanone]	95.8
